Earlier results as cited in patent US20250319028A1, “PHARMACEUTICAL FORMULATION COMPRISING TACROLIMUS, METHOD FOR THE PREPARATION THEREOF AND USE” (PHARMATHEN S.A., priority 2021, published 2025).

What was measured:
[1] = reported, patients

C=CC[C@@H]1/C=C(\C)C[C@H](C)C[C@H](OC)[C@H]2O[C@@](O)(C(=O)C(=O)N3CCCC[C@H]3C(=O)O[C@H](/C(C)=C/[C@@H]3CC[C@@H](O)[C@H](OC)C3)[C@H](C)[C@@H](O)CC1=O)[C@H](C)C[C@@H]2OC [Tacrolimus monohydrate]
Solubility in ethanol (ethanol): freely soluble | Solubility in heptane (heptane): practically insoluble | Solubility in water (water): practically insoluble

C=CC[C@@H]1/C=C(\C)C[C@H](C)C[C@H](OC)[C@H]2O[C@@](O)(C(=O)C(=O)N3CCCC[C@H]3C(=O)O[C@H](/C(C)=C/[C@@H]3CC[C@@H](O)[C@H](OC)C3)[C@H](C)[C@@H](O)CC1=O)[C@H](C)C[C@@H]2OC [Tacrolimus]
Overall incidence of drug-induced nephrotoxicity [1]: ≤ 44%
